Test: refractive index (Na D-line) (dimensionless); xn = mol fraction of the nth substance listed
Conditions: 101 kPa, Liquid, Standard Abbe refractometry

CCCCn1cc[n+](C)c1.F[B-](F)(F)F [1-butyl-3-methylimidazolium tetrafluoroborate] + CO
refractive index
Conditions | 288.15 K | 298.15 K | 308.15 K | 318.15 K
x1 = 0.0113 | 1.337 | 1.3325 | 1.3285 | 1.3246
x1 = 0.0235 | 1.3428 | 1.3381 | 1.3343 | 1.3305
x1 = 0.0366 | 1.3481 | 1.3435 | 1.3398 | 1.3365
x1 = 0.0509 | 1.3539 | 1.3488 | 1.3453 | 1.3419
x1 = 0.0845 | 1.364 | 1.3595 | 1.3562 | 1.3536
x1 = 0.1254 | 1.3729 | 1.369 | 1.3657 | 1.3629
x1 = 0.1771 | 1.3827 | 1.3788 | 1.3754 | 1.3726
x1 = 0.2441 | 1.3912 | 1.3877 | 1.3845 | 1.3813
x1 = 0.3338 | 1.3999 | 1.3966 | 1.3934 | 1.3904
x1 = 0.4626 | 1.4082 | 1.4052 | 1.4022 | 1.3993
x1 = 0.5482 | 1.4123 | 1.4093 | 1.4064 | 1.4036
x1 = 0.6589 | 1.4163 | 1.4135 | 1.4107 | 1.408
x1 = 0.8037 | 1.4204 | 1.4177 | 1.415 | 1.4124
x1 = 1 | 1.4243 | 1.4217 | 1.419 | 1.4164

CCn1cc[n+](C)c1.F[B-](F)(F)F [1-ethyl-3-methylimidazolium tetrafluoroborate] + CO
refractive index
Conditions | 288.15 K | 298.15 K | 308.15 K | 318.15 K
x1 = 0.0136 | 1.3368 | 1.3324 | 1.3286 | 1.3247
x1 = 0.0283 | 1.3419 | 1.3376 | 1.3337 | 1.33
x1 = 0.044 | 1.3466 | 1.3423 | 1.3389 | 1.3357
x1 = 0.0615 | 1.3515 | 1.3474 | 1.3439 | 1.3402
x1 = 0.101 | 1.3604 | 1.3566 | 1.353 | 1.3495
x1 = 0.1485 | 1.3697 | 1.3659 | 1.3627 | 1.3592
x1 = 0.2073 | 1.3785 | 1.3749 | 1.3715 | 1.3685
x1 = 0.2817 | 1.3865 | 1.383 | 1.38 | 1.3768
x1 = 0.379 | 1.3937 | 1.3905 | 1.3874 | 1.3845
x1 = 0.5111 | 1.4008 | 1.3978 | 1.3949 | 1.3922
x1 = 0.5959 | 1.404 | 1.4012 | 1.3985 | 1.3958
x1 = 0.7027 | 1.4075 | 1.4048 | 1.4022 | 1.3996
x1 = 0.8297 | 1.4109 | 1.4082 | 1.4056 | 1.4031
x1 = 1 | 1.4143 | 1.4118 | 1.4092 | 1.4067

— the NIST ThermoML archive (doi:10.1016/j.jct.2015.06.036)
